Source: patent US5541189A, “Substituted aliphatic amine-containing macrocyclic immunomodulators” (Abbott Laboratories, priority 1995, dated 1996)

Key:
[1] = tested on: human mixed lymphocyte reaction (MLR); assay: human mixed lymphocyte reaction (MLR) assay, immunosuppressant activity; format: cell-based; settings: in vitro
Description: The immunosuppressant activity of the compounds of the present invention was determined using the human mixed lymphocyte reaction (MLR) assay described by Kino, T. et al. in Transplantation Proceedings XIX(5):36-39, Suppl. 6 (1987), incorporated herein by reference.

P-glycoprotein = settings: known; increasing sensitivity of multidrug resistant (MDR) cells to chemotherapeutic agents; cited from earlier work

| SMILES | IC50 [1] [µM] | modulators of P-glycoprotein (P-glycoprotein) |
| --- | --- | --- |
| CC[C@@H]1/C=C(\C)C[C@H](C)C[C@H](OC)[C@H]2O[C@@](O)(C(=O)C(=O)N3CCCC[C@H]3C(=O)O[C@H](/C(C)=C/[C@@H]3CC[C@H](NCCCN(C)C)[C@H](OC)C3)[C@H](C)[C@@H](O)CC1=O)[C@H](C)C[C@@H]2OC [Example 7] | < 1 | – |
| CC[C@@H]1/C=C(\C)C[C@H](C)C[C@H](OC)[C@H]2O[C@@](O)(C(=O)C(=O)N3CCCC[C@H]3C(=O)O[C@H](/C(C)=C/[C@@H]3CC[C@H](NCCN(CC)CC)[C@H](OC)C3)[C@H](C)[C@@H](O)CC1=O)[C@H](C)C[C@@H]2OC [Example 13] | < 1 | – |
| CC[C@@H]1/C=C(\C)C[C@H](C)C[C@H](OC)[C@H]2O[C@@](O)(C(=O)C(=O)N3CCCC[C@H]3C(=O)O[C@H](/C(C)=C/[C@@H]3CC[C@H](N(CC)CCN(CC)CC)[C@H](OC)C3)[C@H](C)[C@@H](O)CC1=O)[C@H](C)C[C@@H]2OC [Example 29] | < 1 | – |
| CC[C@@H]1/C=C(\C)C[C@H](C)C[C@H](OC)[C@H]2O[C@@](O)(C(=O)C(=O)N3CCCC[C@H]3C(=O)O[C@H](/C(C)=C/[C@@H]3CC[C@@H](NCCCN(C)C)[C@H](OC)C3)[C@H](C)[C@@H](O)CC1=O)[C@H](C)C[C@@H]2OC [Example 47] | < 1 | – |
| C=CC[C@@H]1/C=C(\C)C[C@H](C)C[C@H](OC)[C@H]2O[C@@](O)(C(=O)C(=O)N3CCCC[C@H]3C(=O)O[C@H](/C(C)=C/[C@@H]3CC[C@@H](O)[C@H](OC)C3)[C@H](C)[C@@H](O)CC1=O)[C@H](C)C[C@@H]2OC [FK-506] | – | effective modulators of P-glycoprotein |
